Several values for one entry are separate records, joined by “and”; a condition that tells them apart may be missing. Equal entries are not always repeated. Toxic doses and inconclusive results are not listed.
Tested on: L1210 leukemia ip in BDF1 mice, survival T/C
Assay: NCI In Vivo Anticancer Drug Screen. Data for tumor model L1210 Leukemia (intraperitoneal) in B6D2F1 (BDF1) mice
Conditions: endpoint: mean survival time, higher = longer survival
Summary of the method: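 Transplantable tumor model; survival measured in treated vs vehicle control mice. Value = treated/control.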

[1] = dose: 100.0 mg/kg/injection, schedule: Q01DX009 (ip), vehicle: Klucel (hydroxypropylcellulose) (HPC)
[2] = dose: 200.0 mg/kg/injection, schedule: Q01DX009 (ip), vehicle: Klucel (hydroxypropylcellulose) (HPC)
[3] = dose: 400.0 mg/kg/injection, schedule: Q01DX009 (ip), vehicle: Klucel (hydroxypropylcellulose) (HPC)
[4] = dose: 100.0 mg/kg/injection, schedule: Q01DX001 (ip), vehicle: saline
[5] = dose: 100.0 mg/kg/injection, schedule: Q04DX003 (ip), vehicle: saline
[6] = dose: 200.0 mg/kg/injection, schedule: Q01DX001 (ip), vehicle: saline
[7] = dose: 400.0 mg/kg/injection, schedule: Q01DX001 (ip), vehicle: saline
[8] = dose: 50.0 mg/kg/injection, schedule: Q01DX009 (ip), vehicle: saline with Tween-80
[9] = dose: 100.0 mg/kg/injection, schedule: Q04DX003 (ip), vehicle: saline with Tween-80
[10] = dose: 200.0 mg/kg/injection, schedule: Q04DX003 (ip), vehicle: saline with Tween-80
[11] = dose: 100.0 mg/kg/injection, schedule: Q04DX003 (ip), vehicle: Klucel (hydroxypropylcellulose) (HPC)
[12] = dose: 200.0 mg/kg/injection, schedule: Q04DX003 (ip), vehicle: Klucel (hydroxypropylcellulose) (HPC)
[13] = dose: 50.0 mg/kg/injection, schedule: Q01DX009 (ip), vehicle: Klucel (hydroxypropylcellulose) (HPC)
[14] = dose: 50.0 mg/kg/injection, schedule: Q04DX003 (ip), vehicle: Klucel (hydroxypropylcellulose) (HPC)
[15] = dose: 200.0 mg/kg/injection, schedule: Q04DX003 (ip), vehicle: saline
[16] = dose: 400.0 mg/kg/injection, schedule: Q04DX003 (ip), vehicle: saline
[17] = dose: 100.0 mg/kg/injection, schedule: Q01DX009 (ip), vehicle: saline
[18] = dose: 200.0 mg/kg/injection, schedule: Q01DX009 (ip), vehicle: saline

For `CSc1ccccc1N=NN(C)C`, the T/C [1] was 101 % of control, the T/C [2] was 97 % of control and 105 % of control and the T/C [3] was 95 % of control and 100 % of control. The T/C (dose: 800.0 mg/kg/injection, schedule: Q01DX009 (ip), vehicle: Klucel (hydroxypropylcellulose) (HPC)) was 121 % of control.

`CC(=O)OCC1C(C)CCC1C(C)(C)OC(C)=O` (stereo not given) was tested, and the T/C (dose: 25.0 mg/kg/injection, schedule: Q04DX003 (ip), vehicle: saline) was 95 % of control, the T/C (dose: 50.0 mg/kg/injection, schedule: Q04DX003 (ip), vehicle: saline) was 109 % of control and the T/C [4] was 107 % of control. For the same compound, the T/C [5] was 98 % of control.

`OCCNCc1ccc(O)cc1` was tested, and the T/C (dose: 100.0 mg/kg/injection, schedule: Q01DX009 (ip), vehicle: water) was 100 % of control, the T/C (dose: 100.0 mg/kg/injection, schedule: Q04DX003 (ip), vehicle: water) was 103 % of control and the T/C (dose: 200.0 mg/kg/injection, schedule: Q01DX009 (ip), vehicle: water) was 105 % of control. For the same compound, the T/C (dose: 200.0 mg/kg/injection, schedule: Q04DX003 (ip), vehicle: water) was 103 % of control, the T/C (dose: 400.0 mg/kg/injection, schedule: Q01DX009 (ip), vehicle: water) was 102 % of control and the T/C (dose: 400.0 mg/kg/injection, schedule: Q04DX003 (ip), vehicle: water) was 103 % of control.

With `Nc1cnccc1NCC(O)c1ccccc1` (stereo not given) the T/C [4] was 95 % of control, the T/C [6] was 101 % of control and the T/C [7] was 86 % of control.

`Cc1ccc2cccc([N+](=O)[O-])c2n1` was tested, and the T/C (dose: 12.5 mg/kg/injection, schedule: Q01DX009 (ip), vehicle: saline with Tween-80) was 93 % of control, the T/C (dose: 25.0 mg/kg/injection, schedule: Q01DX009 (ip), vehicle: saline with Tween-80) was 93 % of control and the T/C (dose: 25.0 mg/kg/injection, schedule: Q04DX003 (ip), vehicle: saline with Tween-80) was 101 % of control. For the same compound, the T/C [8] was 103 % of control, the T/C (dose: 50.0 mg/kg/injection, schedule: Q04DX003 (ip), vehicle: saline with Tween-80) was 95 % of control and the T/C [9] was 105 % of control and 106 % of control. For the same compound, the T/C [10] was 106 % of control.

`O=CC(C=O)[N+](=O)[O-]` was tested, and the T/C [1] was 100 % of control, the T/C (dose: 100.0 mg/kg/injection, schedule: Q04DX002 (ip), vehicle: Klucel (hydroxypropylcellulose) (HPC)) was 97 % of control and the T/C [11] was 97 % of control. For the same compound, the T/C [2] was 105 % of control, the T/C (dose: 200.0 mg/kg/injection, schedule: Q04DX002 (ip), vehicle: Klucel (hydroxypropylcellulose) (HPC)) was 94 % of control and the T/C [12] was 102 % of control. For the same compound, the T/C [3] was 108 % of control, the T/C (dose: 400.0 mg/kg/injection, schedule: Q04DX002 (ip), vehicle: Klucel (hydroxypropylcellulose) (HPC)) was 105 % of control and the T/C (dose: 400.0 mg/kg/injection, schedule: Q04DX003 (ip), vehicle: Klucel (hydroxypropylcellulose) (HPC)) was 102 % of control.

In the case of `O=C(Nc1ccc2c(c1)Cc1cccc(NC(=O)C(Cl)Cl)c1-2)C(Cl)Cl`, the T/C [13] is reported as 95 % of control and the T/C [2] is reported as 89 % of control.

`O=C(O)c1[nH]c(=O)[nH]c(=O)c1F.[Ga]` was tested, and the T/C [8] was 109 % of control, the T/C (dose: 100.0 mg/kg/injection, schedule: Q01DX009 (ip), vehicle: saline with Tween-80) was 91 % of control and the T/C [9] was 101 % of control. The T/C (dose: 177.0 mg/kg/injection, schedule: Q01DX001 (ip), vehicle: saline with Tween-80) was 160 % of control, the T/C (dose: 200.0 mg/kg/injection, schedule: Q01DX001 (ip), vehicle: saline with Tween-80) was 174 % of control and the T/C (dose: 200.0 mg/kg/injection, schedule: Q01DX009 (ip), vehicle: saline with Tween-80) was 99 % of control. The T/C [10] was 102 % of control and the T/C (dose: 400.0 mg/kg/injection, schedule: Q01DX001 (ip), vehicle: saline with Tween-80) was 197 % of control.

For `O=C(NC1CCCCC1)Oc1cc(CCl)cc(CCl)c1`, the T/C [13] was 112 % of control and the T/C [1] was 112 % of control.

`COc1ccc2c(c1)-c1c(O)c(OC)cc3c1C(C2)N(C)CC3` (stereo not given) was tested, and the T/C (dose: 75.0 mg/kg/injection, schedule: Q01DX001 (ip), vehicle: saline) was 94 % of control, the T/C (dose: 150.0 mg/kg/injection, schedule: Q01DX001 (ip), vehicle: saline) was 98 % of control and the T/C (dose: 300.0 mg/kg/injection, schedule: Q01DX001 (ip), vehicle: saline) was 100 % of control.

`COc1ccc(/C=C/[N+](=O)[O-])cc1` was tested, and the T/C (dose: 6.25 mg/kg/injection, schedule: Q04DX002 (ip), vehicle: saline with Tween-80) was 97 % of control, the T/C (dose: 12.5 mg/kg/injection, schedule: Q04DX002 (ip), vehicle: saline with Tween-80) was 93 % of control and the T/C (dose: 25.0 mg/kg/injection, schedule: Q04DX002 (ip), vehicle: other) was 96 % of control. For the same compound, the T/C (dose: 25.0 mg/kg/injection, schedule: Q04DX002 (ip), vehicle: saline with Tween-80) was 89 % of control, the T/C (dose: 25.0 mg/kg/injection, schedule: Q04DX003 (ip), vehicle: Klucel (hydroxypropylcellulose) (HPC)) was 100 % of control and the T/C [14] was 103 % of control. For the same compound, the T/C [11] was 95 % of control.

`Cc1cc(=O)oc2cc(OS(C)(=O)=O)ccc12` was tested, and the T/C (dose: 100.0 mg/kg/injection, schedule: Q01DX001 (ip), vehicle: carboxymethylcellulose (CMC)) was 113 % of control, the T/C (dose: 200.0 mg/kg/injection, schedule: Q01DX001 (ip), vehicle: carboxymethylcellulose (CMC)) was 107 % of control and the T/C (dose: 400.0 mg/kg/injection, schedule: Q01DX001 (ip), vehicle: carboxymethylcellulose (CMC)) was 98 % of control.

For `Cc1[nH]c2ccccc2c1C(c1ccccc1O)c1c(C)[nH]c2ccccc12`, the T/C [1] was 97 % of control, the T/C [2] was 103 % of control and the T/C [3] was 101 % of control.

In the case of `O=c1cc(-c2ccccc2)nc(SCc2ccccc2Cl)[nH]1`, the T/C (dose: 25.0 mg/kg/injection, schedule: Q01DX Z (ip), vehicle: methylcellulose (MC)) is reported as 94 % of control.

In the case of `CC(=O)Oc1c(Br)c(-c2c(C)cc(C)c(Br)c2C)c(OC(C)=O)c(Br)c1-c1c(C)cc(C)c(Br)c1C`, the T/C [1] is reported as 97 % of control, the T/C [5] is reported as 113 % of control and the T/C [2] is reported as 96 % of control. The T/C [15] was 95 % of control, the T/C [3] was 97 % of control and the T/C [16] was 101 % of control.

For `COC(=O)C1(Br)CCC1(Br)C(=O)OC` (stereo not given), the T/C [17] was 100 % of control, the T/C [5] was 93 % of control and the T/C [18] was 100 % of control. The T/C [15] was 100 % of control, the T/C (dose: 400.0 mg/kg/injection, schedule: Q01DX009 (ip), vehicle: saline) was 98 % of control and the T/C [16] was 102 % of control.

`Cc1ccccc1S(=O)(=O)Cc1cc(Cl)cc(Cl)c1O` was tested, and the T/C [4] was 90 % of control, the T/C [6] was 88 % of control and the T/C [7] was 97 % of control.

With `NC(=O)c1c([N+](=O)[O-])ncn1C1OC(CO)C(O)C1O` (stereo not given) the T/C [4] was 98 % of control, the T/C [6] was 102 % of control and the T/C [7] was 96 % of control.

In the case of `COc1cc2c(cc1OC)C(CN)C2` (stereo not given), the T/C (dose: 50.0 mg/kg/injection, schedule: Q01DX009 (ip), vehicle: saline) is reported as 101 % of control, the T/C [17] is reported as 103 % of control and the T/C [5] is reported as 116 % of control. For the same compound, the T/C [18] was 89 % of control and the T/C [15] was 119 % of control.

`C=C(Br)CNC1CCC(CCCC)CC1` (stereo not given) was tested, and the T/C [14] was 106 % of control, the T/C (dose: 100.0 mg/kg/injection, schedule: Q01DX001 (ip), vehicle: Klucel (hydroxypropylcellulose) (HPC)) was 98 % of control and the T/C [11] was 102 % of control. The T/C (dose: 200.0 mg/kg/injection, schedule: Q01DX001 (ip), vehicle: Klucel (hydroxypropylcellulose) (HPC)) was 98 % of control, the T/C [12] was 93 % of control and the T/C (dose: 400.0 mg/kg/injection, schedule: Q01DX001 (ip), vehicle: Klucel (hydroxypropylcellulose) (HPC)) was 98 % of control.

`CC1(C)c2ccccc2N(CCCN2CCCCC2)c2ccccc21` was tested, and the T/C (dose: 9.0 mg/kg/injection, schedule: Q01DX001 (ip), vehicle: water) was 101 % of control, the T/C (dose: 18.0 mg/kg/injection, schedule: Q01DX001 (ip), vehicle: water) was 93 % of control and the T/C (dose: 36.0 mg/kg/injection, schedule: Q01DX001 (ip), vehicle: water) was 101 % of control. The T/C (dose: 50.0 mg/kg/injection, schedule: Q01DX001 (ip), vehicle: water) was 91 % of control, the T/C (dose: 100.0 mg/kg/injection, schedule: Q01DX001 (ip), vehicle: water) was 91 % of control and the T/C (dose: 200.0 mg/kg/injection, schedule: Q01DX001 (ip), vehicle: water) was 100 % of control.

For `O=P(O)(O)c1ccc(N=Nc2ccc(P(=O)(O)O)cc2)cc1`, the T/C [5] was 94 % of control, the T/C [15] was 107 % of control and the T/C [16] was 97 % of control.

From PubChem BioAssay AID248 (DTP/NCI, 2004)
